Source: PMC9867837 (Cancer letters, 2022)

Legend:
Stat3 = Stat3 (Homo sapiens, UniProt P40763); experiment: Stat3 activity and target gene expression in extracted tumor tissues; type: in vivo, mouse; parameters: Tissue lysates of equal total protein prepared from the extracted tumors; from tissue; host or cells: extracted tumour tissue from treated and untreated mice
Experimental: We then profiled tumor tissues for Stat3 activity and Stat3 target gene expression as pharmacodynamic markers of therapeutic response. Tissue lysates of equal total protein prepared from the extracted tumors were subjected to Stat3 DNA-binding assay/EMSA analysis or SDS-PAGE and immunoblotting analysis.
These studies were performed as previously described [1 -3] . Briefly, snap-frozen tumor tissues or cultured cells treated or not were harvested and whole-cell or tissue lysates were prepared in radioimmunoprecipitation assay (RIPA) buffer. Samples of equal total protein were subjected to SDS - PAGE and immunoblotting analysis. Primary antibodies used were anti- Stat3, pY705-Stat3, pS727Stat3, […]
Akt, pT202/Y204Erk1/2 (p44/42), Erk1/2, PARP , caspase 3, c-Myc, survivin, VEGF, β-actin, α/β-tubulin, and GAPDH. For the studies of the effects of cell density and confluence on pY705Stat3, cells were seeded […] in culture dishes. The next day, cells were untreated (DMSO control, […]
concentration of H182 for 6 h and then treated with 0- 100 nM docetaxel or 0-20 µM cisplatin for a total of 72 h. Viable cell numbers were assessed by a CyQuant cell proliferation kit according to the manufacturer’s instructions (Thermo/Life Technologies Corp, Carlsbad, CA). […]

[1] = test system: Stat3-independent pLucSRE luciferase reporter; experiment: Stat3-independent luciferase reporter pLucSRE in NIH3T3/v-Src; type: cell-based, mouse; settings: 1–3 μM H182 for 1 h
[2] = molecular target: SH2 domain of pure recombinant Stat3 (Homo sapiens, UniProt P40763); experiment: Stat3 fluorescence polarization (FP) assay; type: binding; settings: 0–10 μM, 5-carboxyfluorescein-GpYLPQTV-NH2 probe
Experimental: Details are presented in Supplementary Information, “Methods”.
The Stat3:azetidine compound interaction was investigated further by focusing on how the compounds might interfere with Stat3 dimerization (Stat3:Stat3), which occurs via pTyr peptide:SH2 domain interaction. […]
confocal microscope (Stellaris 8-STED Super -resolution , Germany) with a 60x oil lens and images were processed by ImageJ software.
1.2.9. Fluorescence polarization assay (FP)
These studies were conducted as previously reported using the labeled phosphopeptide, 5-carboxyfluorescein GpYLPQTV-NH 2 (where pY represents phospho-Tyr) as probe and purified recombinant Stat3, with some modifications. […]
10 µM of unlabeled GpYLPQTV-NH 2 (positive control) or H182 at 30 °C for 30 min in the indicated assay buffer conditions, prior to the addition of the labeled probe at 10 nM final concentration and incubated for 30 min at room temperature, and thereafter reading the FP signal at 10, 30, and 60 min using the SpectraMax ID5 (Molecular Devices, San Jose, CA), with the set gain adjustment at 35 mP. In some cases, the recombinant His-Stat3 was pre-incubated with the unlabeled GpYLPQTV-NH 2 or H182 at 0-10 µM for 10 min or at 0-50 µM for 30 min prior to incubation with the labeled probe, and thereafter reading the FP signal at 10, 30, or 60 min using the SpectraMax ID5, with the set gain adjustment at 35 mP.
1.2.10. […]

[3] = test system: Stat3-dependent luciferase reporter, pLucTKS3; experiment: Stat3-dependent luciferase reporter pLucTKS3 in NIH3T3/v-Src; type: cell-based, mouse; settings: 1–3 μM H182 for 1 h
Experimental: These studies were performed as previously reported using the v-Src-transformed NIH3T3/v-Src fibroblasts. Details are presented in Supplementary Information, “Methods”.
We next evaluated the effects of the azetidine compound, H182 on Stat3 transcriptional activity. We used mouse fibroblasts transformed by the viral Src oncoprotein (NIH3T3/vSrc) that harbor constitutive Stat3 activation, which were transiently transfected with the Stat3-dependent luciferase reporter, pLucTKS3 [25, 30]. Transfected cells were treated with H182 and the luciferase activity was assayed in the cytosolic extract preparations of equal total protein [12, 13, 30]. […]
In another case, the nuclear extract was pre-incubated with the radiolabeled probe for 30 min at 30 °C prior to incubation with increasing concentration of H182 at room temperature for 30 min and subjecting to EMSA analysis. Bands corresponding to Stats DNA- binding activities were scanned and quantified using ImageJ and plotted as a percentage of control (vehicle) against the concentration of the inhibitor, from which the IC50 values were derived . […]
These studies were performed as previously reported using the v-Src -transformed NIH3T3/v-Src fibroblasts [1 -5] . […] Luciferase activity was normalized to total protein concentration of cell lysate, which was determined by Bradford assay (Bio-Rad, Hercules, CA) . […]

Stat3, sequence (P40763 2-770 limits assumed): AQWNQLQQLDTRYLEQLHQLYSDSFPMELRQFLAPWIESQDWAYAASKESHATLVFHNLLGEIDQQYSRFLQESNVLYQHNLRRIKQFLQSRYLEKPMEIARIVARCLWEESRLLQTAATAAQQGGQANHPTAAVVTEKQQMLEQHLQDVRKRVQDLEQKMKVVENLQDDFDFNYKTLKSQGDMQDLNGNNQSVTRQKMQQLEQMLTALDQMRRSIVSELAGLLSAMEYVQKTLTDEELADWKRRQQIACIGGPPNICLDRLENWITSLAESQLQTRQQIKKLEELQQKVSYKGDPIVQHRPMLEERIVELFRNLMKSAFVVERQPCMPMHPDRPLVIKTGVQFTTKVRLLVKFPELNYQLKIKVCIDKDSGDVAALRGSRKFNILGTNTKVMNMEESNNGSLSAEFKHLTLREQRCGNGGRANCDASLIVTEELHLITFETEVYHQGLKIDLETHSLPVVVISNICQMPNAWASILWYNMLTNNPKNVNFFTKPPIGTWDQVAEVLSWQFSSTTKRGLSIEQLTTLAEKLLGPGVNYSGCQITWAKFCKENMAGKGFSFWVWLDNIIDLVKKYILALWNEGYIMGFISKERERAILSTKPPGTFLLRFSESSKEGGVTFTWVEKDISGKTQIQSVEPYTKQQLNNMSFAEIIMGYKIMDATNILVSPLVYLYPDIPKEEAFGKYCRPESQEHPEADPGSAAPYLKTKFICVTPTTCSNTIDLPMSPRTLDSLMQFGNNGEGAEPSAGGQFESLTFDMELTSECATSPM
SH2 domain of pure recombinant Stat3, sequence (P40763 whole entry, the tested form may be a part): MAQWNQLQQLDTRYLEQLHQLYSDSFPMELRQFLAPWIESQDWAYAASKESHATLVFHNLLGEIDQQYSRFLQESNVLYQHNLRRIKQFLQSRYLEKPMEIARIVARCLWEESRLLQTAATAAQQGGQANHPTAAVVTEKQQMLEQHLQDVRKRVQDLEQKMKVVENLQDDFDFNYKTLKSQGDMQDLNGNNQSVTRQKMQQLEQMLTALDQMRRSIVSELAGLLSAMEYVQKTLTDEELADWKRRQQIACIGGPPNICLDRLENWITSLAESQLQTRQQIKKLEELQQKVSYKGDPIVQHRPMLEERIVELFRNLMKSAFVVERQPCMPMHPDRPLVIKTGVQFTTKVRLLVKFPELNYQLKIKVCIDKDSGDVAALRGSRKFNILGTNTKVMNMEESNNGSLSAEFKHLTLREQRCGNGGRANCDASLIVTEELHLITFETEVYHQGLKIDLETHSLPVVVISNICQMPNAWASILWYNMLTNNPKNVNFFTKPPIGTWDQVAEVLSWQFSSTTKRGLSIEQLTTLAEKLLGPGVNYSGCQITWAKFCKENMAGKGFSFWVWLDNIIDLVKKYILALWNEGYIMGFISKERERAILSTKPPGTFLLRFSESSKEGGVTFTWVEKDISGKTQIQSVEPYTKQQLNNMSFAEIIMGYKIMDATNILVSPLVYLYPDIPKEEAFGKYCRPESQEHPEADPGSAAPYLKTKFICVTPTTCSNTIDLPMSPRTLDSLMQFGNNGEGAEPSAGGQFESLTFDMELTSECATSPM

O=C([C@H]1CCN1S(=O)(=O)c1c(F)c(F)c(F)c(F)c1F)N(Cc1ccc(C2CCCCC2)cn1)c1ccc2c(=O)[nH]ncc2c1 [Compound H182]
Stat3 DNA-binding activity in tumor tissues (Stat3; EMSA of tumor tissue lysates, treated vs untreated control): suppressed Stat3 DNA-binding activity in tumor tissues | Expression of c-Myc, VEGF, and survivin in tumor tissues (Stat3; immunoblotting of tumor tissue lysates): suppression of the expression of Stat3 downstream genes | Effect on pLucSRE luciferase reporter expression [1]: no changes | Effect on FP signal [2]: fluctuations of the FP signal | Effect on Stat3-driven luciferase reporter expression (pLucTKS3) [3]: dose-dependent inhibition
